Measured values: ChEMBL document CHEMBL1201862, “PubChem BioAssay data set” (2004)
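96-well plates; 48 h exposure; 5 concentrations. Endpoints by linear interpolation between flanking doses. Not reached: highest tested concentration assigned. GI50 marks 50% less growth.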 Calls of active or inactive are those of the source. Rule as the data show it: active = GI50 up to about 1.1 µM and inactive = higher.

Experiments:
Test in all cases: NCI tumour cell line growth inhibition, 48 h
SNB-75 = test system: SNB-75
Malme-3M = test system: Malme-3M
NCI-H23 = test system: NCI-H23
NCI-H522 = test system: NCI-H522
CCRF-CEM = test system: CCRF-CEM
BT-549 = test system: BT-549
SF-295 = test system: SF-295
KM12 = test system: KM12
T47D = test system: T47D
OVCAR-8 = test system: OVCAR-8
SF-268 = test system: SF-268
UACC-62 = test system: UACC-62
NCI/ADR-RES = test system: NCI/ADR-RES
HT-29 = test system: HT-29
RPMI-8226 = test system: RPMI-8226
SNB-19 = test system: SNB-19
MDA-MB-231 = test system: MDA-MB-231
UACC-257 = test system: UACC-257
CAKI-1 = test system: CAKI-1
TK-10 = test system: TK-10
RXF 393 = test system: RXF 393
SK-MEL-2 = test system: SK-MEL-2
NCI-H226 = test system: NCI-H226
SR = test system: SR
HOP-92 = test system: HOP-92
SK-MEL-5 = test system: SK-MEL-5
U-251 = test system: U-251
OVCAR-3 = test system: OVCAR-3
UO-31 = test system: UO-31
OVCAR-5 = test system: OVCAR-5
HCT-116 = test system: HCT-116
MDA-N = test system: MDA-N
Hs-578T = test system: Hs-578T
A498 = test system: A498
HCC 2998 = test system: HCC 2998
MDA-MB-435 = test system: MDA-MB-435
LOX IMVI = test system: LOX IMVI
MCF7 = test system: MCF7
SK-OV-3 = test system: SK-OV-3
NCI-H460 = test system: NCI-H460
K562 = test system: K562
A549 = test system: A549
786-0 = test system: 786-0
ACHN = test system: ACHN
COLO 205 = test system: COLO 205
M14 = test system: M14
HCT-15 = test system: HCT-15
SF-539 = test system: SF-539
SW-620 = test system: SW-620
MOLT-4 = test system: MOLT-4
SN12C = test system: SN12C
OVCAR-4 = test system: OVCAR-4
IGROV-1 = test system: IGROV-1
HOP-62 = test system: HOP-62
PC-3 = test system: PC-3
EKVX = test system: EKVX
DU-145 = test system: DU-145
SK-MEL-28 = test system: SK-MEL-28

Cc1nc2c(=O)n(-c3ccccc3)c(=O)n(-c3ccccc3)c2o1
GI50 (SNB-75): > 100 µM (inactive) | GI50 (Malme-3M): > 100 µM (inactive) | GI50 (NCI-H23): > 100 µM (inactive) | GI50 (NCI-H522): > 100 µM (inactive) | GI50 (CCRF-CEM): > 100 µM (inactive) | GI50 (BT-549): > 100 µM (inactive) | GI50 (SF-295): > 100 µM (inactive) | GI50 (KM12): > 100 µM (inactive) | GI50 (T47D): > 100 µM (inactive) | GI50 (OVCAR-8): > 100 µM (inactive) | GI50 (SF-268): > 100 µM (inactive) | GI50 (UACC-62): > 100 µM (inactive) | GI50 (NCI/ADR-RES): > 100 µM (inactive) | GI50 (HT-29): > 100 µM (inactive) | GI50 (RPMI-8226): > 100 µM (inactive) | GI50 (SNB-19): > 100 µM (inactive) | GI50 (MDA-MB-231): > 100 µM (inactive) | GI50 (UACC-257): > 100 µM (inactive) | GI50 (CAKI-1): > 100 µM (inactive) | GI50 (TK-10): 58.3 µM (inactive) | GI50 (RXF 393): > 100 µM (inactive) | GI50 (SK-MEL-2): > 100 µM (inactive) | GI50 (NCI-H226): > 100 µM (inactive) | GI50 (SR): > 100 µM (inactive) | GI50 (HOP-92): > 100 µM (inactive) | GI50 (SK-MEL-5): > 100 µM (inactive) | GI50 (U-251): > 100 µM (inactive) | GI50 (OVCAR-3): > 100 µM (inactive) | GI50 (UO-31): > 100 µM (inactive) | GI50 (OVCAR-5): > 100 µM (inactive) | GI50 (HCT-116): > 100 µM (inactive) | GI50 (MDA-N): > 100 µM (inactive) | GI50 (Hs-578T): > 100 µM (inactive) | GI50 (A498): > 100 µM (inactive) | GI50 (HCC 2998): > 100 µM (inactive) | GI50 (MDA-MB-435): > 100 µM (inactive) | GI50 (LOX IMVI): > 100 µM (inactive) | GI50 (MCF7): > 100 µM (inactive) | GI50 (SK-OV-3): > 100 µM (inactive) | GI50 (NCI-H460): > 100 µM (inactive) | GI50 (K562): > 100 µM (inactive) | GI50 (A549): > 100 µM (inactive) | GI50 (786-0): > 100 µM (inactive) | GI50 (ACHN): > 100 µM (inactive) | GI50 (COLO 205): > 100 µM (inactive) | GI50 (M14): > 100 µM (inactive) | GI50 (HCT-15): > 100 µM | GI50 (SF-539): > 100 µM (inactive) | GI50 (SW-620): > 100 µM (inactive) | GI50 (MOLT-4): > 100 µM (inactive) | GI50 (SN12C): > 100 µM (inactive) | GI50 (OVCAR-4): > 100 µM (inactive) | GI50 (IGROV-1): > 100 µM (inactive) | GI50 (HOP-62): > 100 µM (inactive) | GI50 (PC-3): > 100 µM (inactive) | GI50 (EKVX): > 100 µM (inactive)

COc1cc2c[n+](C)c3c4cc(OC)c(OC)cc4c(OC)cc3c2cc1OC
GI50 (SNB-75): 7.91 µM (inactive) | GI50 (Malme-3M): 2.06 µM (inactive) | GI50 (NCI-H23): 5.58 µM (inactive) | GI50 (NCI-H522): 0.0359 µM (active) | GI50 (CCRF-CEM): 6.1 µM (inactive) | GI50 (BT-549): 3.92 µM (inactive) | GI50 (SF-295): 20 µM (inactive) | GI50 (KM12): 5.27 µM (inactive) | GI50 (T47D): 1.85 µM (inactive) | GI50 (OVCAR-8): 0.371 µM (active) | GI50 (SF-268): 0.0689 µM (active) | GI50 (UACC-62): 6.27 µM (inactive) | GI50 (NCI/ADR-RES): > 100 µM (inactive) | GI50 (HT-29): 5.48 µM (inactive) | GI50 (RPMI-8226): 16.4 µM (inactive) | GI50 (SNB-19): 1.03 µM (active) | GI50 (MDA-MB-231): 0.53 µM (active) | GI50 (UACC-257): 2.86 µM (inactive) | GI50 (CAKI-1): > 100 µM (inactive) | GI50 (TK-10): > 100 µM (inactive) | GI50 (RXF 393): 8.83 µM (inactive) | GI50 (SK-MEL-2): 15.8 µM (inactive) | GI50 (NCI-H226): 1.36 µM (inactive) | GI50 (SK-MEL-5): 2.77 µM (inactive) | GI50 (U-251): 2.38 µM (inactive) | GI50 (OVCAR-3): 2.34 µM (inactive) | GI50 (UO-31): > 100 µM (inactive) | GI50 (DU-145): 8.45 µM (inactive) | GI50 (OVCAR-5): > 100 µM (inactive) | GI50 (HCT-116): 2.92 µM (inactive) | GI50 (MDA-N): 6.32 µM (inactive) | GI50 (Hs-578T): 1.44 µM (inactive) | GI50 (A498): > 100 µM (inactive) | GI50 (HCC 2998): 6.01 µM (inactive) | GI50 (MDA-MB-435): 11.2 µM (inactive) | GI50 (LOX IMVI): 16.7 µM (inactive) | GI50 (MCF7): 2.17 µM (inactive) | GI50 (SK-OV-3): 42.2 µM (inactive) | GI50 (NCI-H460): 17.4 µM (inactive) | GI50 (K562): 4.03 µM (inactive) | GI50 (A549): > 65.3 µM (inactive) | GI50 (786-0): 5.43 µM (inactive) | GI50 (ACHN): > 100 µM (inactive) | GI50 (COLO 205): 1.2 µM (inactive) | GI50 (M14): 30.5 µM (inactive) | GI50 (HCT-15): > 100 µM | GI50 (SF-539): 1.87 µM (inactive) | GI50 (SW-620): 7.69 µM (inactive) | GI50 (SK-MEL-28): 6.43 µM (inactive) | GI50 (SN12C): 0.188 µM (active) | GI50 (OVCAR-4): 8.02 µM (inactive) | GI50 (HOP-62): 16.4 µM (inactive) | GI50 (PC-3): 12.2 µM (inactive) | GI50 (EKVX): > 74.1 µM (inactive)

OCC1OC(n2cnc3c(Cl)nc(Nc4ccccc4)nc32)CC1O (stereo unspecified)
GI50 (SNB-75): 42.6 µM (inactive) | GI50 (Malme-3M): 18.7 µM (inactive) | GI50 (NCI-H23): 29.3 µM (inactive) | GI50 (NCI-H522): 5.2 µM (inactive) | GI50 (CCRF-CEM): 26.1 µM (inactive) | GI50 (BT-549): 35.6 µM (inactive) | GI50 (SF-295): > 100 µM (inactive) | GI50 (KM12): > 100 µM (inactive) | GI50 (T47D): > 100 µM (inactive) | GI50 (OVCAR-8): > 100 µM (inactive) | GI50 (SF-268): 65.6 µM (inactive) | GI50 (UACC-62): 40.5 µM (inactive) | GI50 (NCI/ADR-RES): > 100 µM (inactive) | GI50 (HT-29): > 100 µM (inactive) | GI50 (RPMI-8226): > 100 µM (inactive) | GI50 (SNB-19): > 100 µM (inactive) | GI50 (MDA-MB-231): 31.2 µM (inactive) | GI50 (UACC-257): 59.3 µM (inactive) | GI50 (CAKI-1): 1.77 µM (inactive) | GI50 (TK-10): > 100 µM (inactive) | GI50 (RXF 393): 57.1 µM (inactive) | GI50 (SK-MEL-2): 45.7 µM (inactive) | GI50 (NCI-H226): > 100 µM (inactive) | GI50 (HOP-92): 2.74 µM (inactive) | GI50 (SK-MEL-5): > 100 µM (inactive) | GI50 (U-251): > 100 µM (inactive) | GI50 (OVCAR-3): 75.5 µM (inactive) | GI50 (UO-31): 18 µM (inactive) | GI50 (DU-145): > 100 µM (inactive) | GI50 (OVCAR-5): > 100 µM (inactive) | GI50 (HCT-116): > 100 µM (inactive) | GI50 (MDA-N): 75.5 µM (inactive) | GI50 (Hs-578T): 35.2 µM (inactive) | GI50 (A498): 70 µM (inactive) | GI50 (HCC 2998): 17.8 µM (inactive) | GI50 (MDA-MB-435): 60.1 µM (inactive) | GI50 (LOX IMVI): 19.2 µM (inactive) | GI50 (MCF7): > 100 µM (inactive) | GI50 (SK-OV-3): > 100 µM (inactive) | GI50 (NCI-H460): 49.9 µM (inactive) | GI50 (K562): 32.7 µM (inactive) | GI50 (A549): 17.7 µM (inactive) | GI50 (786-0): > 100 µM (inactive) | GI50 (ACHN): 17.3 µM (inactive) | GI50 (COLO 205): > 100 µM (inactive) | GI50 (M14): 60.1 µM (inactive) | GI50 (HCT-15): 20.8 µM | GI50 (SF-539): > 100 µM (inactive) | GI50 (SW-620): > 100 µM (inactive) | GI50 (MOLT-4): 23.6 µM (inactive) | GI50 (SN12C): > 100 µM (inactive) | GI50 (OVCAR-4): 25.4 µM (inactive) | GI50 (IGROV-1): 25.4 µM (inactive) | GI50 (HOP-62): > 100 µM (inactive) | GI50 (PC-3): > 100 µM (inactive) | GI50 (EKVX): 2.94 µM (inactive)
